Data: US20260285853A1, “COMPOUNDS AND METHODS FOR MODULATING SPLICING” (REMIX THERAPEUTICS INC., priority 2023, published 2026)
pIC50: −log10 of the molar value. Like-named read-outs stand apart in the source and are kept apart here.

Experiments:
Type in all cases: cell-based
MYB mRNA [1] = assay: Gene panel canonical junction qPCR assay, decrease in CJ mRNA, Table 3
Method in brief: (§1)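 IC50 denotes the concentration giving 50% decrease in canonical-junction mRNA, fitted by 4-parameter logistic to percentage response derived from ΔΔCt versus housekeeping gene and DMSO control. Cells (A673 or K562) exposed 24 h to 11-point 3-fold serial dilutions from 10 uM top, DMSO ≤0.25%; junction-spanning primer/probe qPCR.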

HTT mRNA [2] = assay: as above
Method in brief: as §1

MYB mRNA [3] = assay: Splicing RT-qPCR assay (THP), Table 2A
[4] = tested on: SH-SY5Y (human neuroblastoma) cells; assay: Cell viability, Cell Titer Glo 2.0 assay; details: read-out: Viability SHSY5Y.3 GI50
Method in brief: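 Viability was read by CellTiter-Glo 2.0 luminescence after a 72-hour compound exposure at 37° C. under 5% CO2. Cells were in IMDM plus 10% FBS containing 0.1% DMSO, and medium-only wells gave the blank.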

HTT mRNA [5] = assay: Splicing RT-qPCR assay (THP), Table 2A
[6] = decrease in canonical junction (CJ) mRNA, gene panel qPCR, Table 3
[7] = Table 2A (THP), AJ mRNA increase, read-out: MYB AJ (increase in alternative junction mRNA, AC50)
[8] = Table 2A (THP), CJ mRNA decrease, read-out: MYB CJ (decrease in canonical junction mRNA, IC50)
[9] = Table 2A (THP), AJ mRNA increase, read-out: HTT AJ (increase in alternative junction mRNA, AC50)
[10] = Table 2A (THP), CJ mRNA decrease, read-out: HTT CJ (decrease in canonical junction mRNA, IC50)
[11] = decrease in CJ mRNA levels, canonical junction qPCR, gene panel
[12] = Table 2A, THP, MYB alternative junction (AJ) mRNA, read-out: MYB AJ (AC50, increase in alternative junction mRNA)
[13] = Table 2A, THP, MYB canonical junction (CJ) mRNA, read-out: MYB CJ (IC50, decrease in canonical junction mRNA)
[14] = Table 2A, THP, HTT alternative junction (AJ) mRNA, read-out: HTT AJ (AC50, increase in alternative junction mRNA)
[15] = Table 2A, THP, HTT canonical junction (CJ) mRNA, read-out: HTT CJ (IC50, decrease in canonical junction mRNA)

Row | pIC50 (MYB mRNA [1]; [6]) | pIC50 (HTT mRNA [2]; [6]) | pIC50 (MYB mRNA [3]; [8]) | GI50 [4] | pIC50 (HTT mRNA [5]; [10]) | pIC50 (MYB mRNA [1]; [11]) | pIC50 (HTT mRNA [2]; [11]) | pIC50 (MYB mRNA [3]; [13]) | pIC50 (HTT mRNA [5]; [15]) | SMILES | AC50 (MYB mRNA [3]; [7]) | AC50 (HTT mRNA [5]; [9]) | AC50 (MYB mRNA [3]; [12]) | AC50 (HTT mRNA [5]; [14])
1 | < 5.00 | < 5.00 | < 5.00 | 1000 to 10000 nM | < 5.00 | – | – | – | – | Cc1cn2cc(NC(=O)c3ccc(N4CCC(NC5CC5)CC4)c4cn(C)nc34)nc2c(-c2cnoc2)n1 [Compound 462, 4-[4-(cyclopropylamino)-1-piperidyl]-N-(8-isoxazol-4-yl-6-methyl-imidazo[1,2-a]-pyrazin-2-yl)-2-methyl-indazole-7-carboxamide] | > 10000 nM | > 10000 nM | – | –
2 | > 7.00 | < 5.00 | > 7.00 | 100 to 1000 nM | < 5.00 | – | – | – | – | Cc1cn2cc(NC(=O)c3c(F)cc(N4CCC(NC5CC5)CC4)c4cn(C)nc34)c(Oc3ccccc3)cc2n1 [Compound 417, 4-[4-(cyclopropylamino)-1-piperidyl]-6-fluoro-2-methyl-N-(2-methyl-7-phenoxyimidazo[1,2-a]pyridin-6-yl)-indazole-7-carboxamide] | < 100 nM | 1000 to 10000 nM | – | –
3 | 5.00 to 6.00 | < 5.00 | 5.00 to 6.00 | > 10000 nM | < 5.00 | – | – | – | – | Cc1nc(CN)cn2cc(NC(=O)c3c(F)cc(N4CCC(NC5CC5)CC4)c4cn(C)nc34)nc12 [Compound 401, N-[6-(aminomethyl)-8-methyl-imidazo[1,2-a]pyrazin-2-yl]-4-[4-(cyclopropylamino)-1-piperidyl]-6-fluoro-2-methyl-indazole-7-carboxamide] | 1000 to 10000 nM | > 10000 nM | – | –
4 | – | – | – | > 10000 nM | – | < 5.00 | < 5.00 | < 5.00 | < 5.00 | COc1nc2c(C(=O)Nc3cc(CNS(C)(=O)=O)c4nn(C)cc4c3)ccc(N3CCC(NC4CC4)CC3)c2s1 [Compound 843] | – | – | > 10000 nM | > 10000 nM
5 | 5.00 to 6.00 | < 5.00 | 5.00 to 6.00 | 1000 to 10000 nM | < 5.00 | – | – | – | – | CCNC1CCN(c2ccc(C(=O)Nc3cc4c(C)nc(C)cn4c3)c3nn(C)cc23)CC1 [Compound 345, N-(1,3-dimethylpyrrolo[1,2-a]pyrazin-7-yl)-4-[4-(ethylamino)-1-piperidyl]-2-methyl-indazole-7-carboxamide] | > 10000 nM | > 10000 nM | – | –
6 | 6.00 to 7.00 | 6.00 to 7.00 | 6.00 to 7.00 | 100 to 1000 nM | 6.00 to 7.00 | – | – | – | – | Cc1cn2cc(NC(=O)c3ccc(N4CCC(N5CCNCC5)C4)c4cn(C)nc34)nc2c(C)n1 (stereo not drawn) [Compound 528] | 100 to 1000 nM | 100 to 1000 nM | – | –
7 | < 5.00 | < 5.00 | < 5.00 | 1000 to 10000 nM | < 5.00 | – | – | – | – | COc1cnncc1NC(=O)c1c(F)cc(N2CCC(NC3CC3)CC2)c2cn(C)nc12 [Compound 421, 4-[4-(cyclopropylamino)-1-piperidyl]-6-fluoro-N-(5-methoxypyridazin-4-yl)-2-methyl-indazole-7-carbox-amide] | > 10000 nM | > 10000 nM | – | –
8 | < 5.00 | < 5.00 | < 5.00 | > 10000 nM | < 5.00 | – | – | – | – | Cc1cn2cc(NC(=O)c3ccc(NC4CCCNCC4)c4cn(C)nc34)nc2c(C)n1 (stereo not drawn) [Compound 536] | > 10000 nM | > 10000 nM | – | –
9 | 5.00 to 6.00 | 5.00 to 6.00 | 5.00 to 6.00 | 1000 to 10000 nM | 5.00 to 6.00 | – | – | – | – | CCNC1CCN(c2ccc(C(=O)Nc3cn4cc(C)nc(C5CC5)c4n3)c3nn(C)cc23)CC1 [Compound 312, N-(8-cyclopropyl-6-methyl-imidazo[1,2-a]pyrazin-2-yl)-4-[4-(ethylamino)-1-piperidyl]-2-methyl-indazole-7-carboxamide] | 1000 to 10000 nM | 1000 to 10000 nM | – | –
10 | – | – | – | > 10000 nM | – | < 5.00 | < 5.00 | < 5.00 | < 5.00 | CCNC1CCN(c2ccc(C(=O)Nc3cc(CC(N)=O)c4nn(C)cc4c3)c3nn(C)cc23)CC1 [Compound 873, N-[7-(2-amino-2-oxo-ethyl)-2-methyl-indazol-5-yl]-4-[4-(ethylamino)-1-piperidyl]-2-methyl-indazole-7-carboxamide] | – | – | > 10000 nM | > 10000 nM
11 | 5.00 to 6.00 | 5.00 to 6.00 | 5.00 to 6.00 | 1000 to 10000 nM | 5.00 to 6.00 | – | – | – | – | CCNC1CCN(c2ccc(C(=O)Nc3cc(-n4ccc(=O)cc4)c4nc(C)cn4c3)c3nn(C)cc23)CC1 [Compound 360, 4-(4-(ethylamino)piperidin-1-yl)-2-methyl-N-(2-methyl-8-(4-oxopyridin-1-(4H)-yl)imidazo[1,2-a]-pyridin-6-yl)-2H-indazole-7-carboxamide] | 1000 to 10000 nM | 1000 to 10000 nM | – | –
12 | 6.00 to 7.00 | 5.00 to 6.00 | 6.00 to 7.00 | 1000 to 10000 nM | 5.00 to 6.00 | – | – | – | – | COc1nc2nn(C)cc2cc1NC(=O)c1ccc(N2CCC(NC3CC3)CC2)c2cn(C)nc12 [Compound 460, 4-[4-(cyclopropylamino)-1-piperidyl]-N-(6-methoxy-2-methyl-pyrazolo[3,4-b]-pyridin-5-yl)-2-methyl-indazole-7-carboxamide] | 100 to 1000 nM | 1000 to 10000 nM | – | –
13 | – | – | – | 100 to 1000 nM | – | > 7.00 | 6.00 to 7.00 | > 7.00 | 6.00 to 7.00 | CNC1CN(c2ccc(C(=O)Nc3cc(F)c4nn(C)cc4c3)c3nc(OC)sc23)C1 [Compound 749, N-(7-fluoro-2-methyl-indazol-5-yl)-2-methoxy-7-[3-(methylamino)azetidin-1-yl]-1,3-benzothiazole-4-carboxamide] | – | – | 100 to 1000 nM | 100 to 1000 nM
14 | 6.00 to 7.00 | 6.00 to 7.00 | 6.00 to 7.00 | 100 to 1000 nM | 6.00 to 7.00 | – | – | – | – | Cc1cn2cc(NC(=O)c3ccc(N4CCN(C5CNC5)CC4)c4cn(C)nc34)nc2c(C)n1 [Compound 533] | 100 to 1000 nM | 100 to 1000 nM | – | –
15 | > 7.00 | 6.00 to 7.00 | > 7.00 | < 100 nM | 6.00 to 7.00 | – | – | – | – | COc1cc2nn(C)cc2cc1NC(=O)c1c(F)cc(N2CCC(NC3CC3)CC2)c2cn(C)nc12 [Compound 396, 4-[4-(cyclopropylamino)-1-piperidyl]-6-fluoro-N-(6-methoxy-2-methyl-indazol-5-yl)-2-methyl-indazole-7-carboxamide] | < 100 nM | 100 to 1000 nM | – | –
16 | > 7.00 | 6.00 to 7.00 | > 7.00 | < 100 nM | 6.00 to 7.00 | – | – | – | – | COc1c(NC(=O)c2c(F)cc(N3CCC(NC4CC4)CC3)c3cn(C)nc23)cc2cn(C)nc2c1Cl [Compound 433, N-(7-chloro-6-methoxy-2-methyl-indazol-5-yl)-4-[4-(cyclopropylamino)-1-piperidyl]-6-fluoro-2-methyl-indazole-7-carboxamide] | < 100 nM | 100 to 1000 nM | – | –
17 | – | – | – | 1000 to 10000 nM | – | < 5.00 | < 5.00 | < 5.00 | < 5.00 | Cn1cc2cc(NC(=O)c3ccc(N4CCC(N(C(=O)OC(C)(C)C)C5CC5)CC4)c4cn(C)nc34)cc(CN)c2n1 [Compound 815] | – | – | > 10000 nM | > 10000 nM
18 | – | – | – | 1000 to 10000 nM | – | 5.00 to 6.00 | 5.00 to 6.00 | 5.00 to 6.00 | 5.00 to 6.00 | CCNC1CCN(c2ccc(C(=O)Nc3cn4cc(C)nc(CC(=O)N(C)C)c4n3)c3nn(C)cc23)CC1 [Compound 856] | – | – | 1000 to 10000 nM | 1000 to 10000 nM
19 | – | – | – | > 10000 nM | – | 5.00 to 6.00 | < 5.00 | 5.00 to 6.00 | < 5.00 | Cn1cc2cc(NC(=O)c3ccc(N4CCC(NC5CC5)CC4)c4cn(C)nc34)cc(CNC(=N)N)c2n1 [Compound 871] | – | – | 1000 to 10000 nM | > 10000 nM
20 | – | – | – | 100 to 1000 nM | – | > 7.00 | 6.00 to 7.00 | > 7.00 | 6.00 to 7.00 | COc1nc2c(C(=O)Nc3cc(F)c4nn(C)cc4c3)ccc(N3CC[C@@H](NC(C)(C)C)C3)c2s1 [Compound 769] | – | – | < 100 nM | 100 to 1000 nM
21 | 6.00 to 7.00 | < 5.00 | 6.00 to 7.00 | 1000 to 10000 nM | < 5.00 | – | – | – | – | Cc1cc2cc(NC(=O)c3c(F)cc(N4CCC(NC5CC5)CC4)c4cn(C)nc34)oc2c(C)n1 [Compound 456, 4-[4-(cyclopropylamino)-1-piperidyl]-N-(5,7-dimethylfuro-[2,3-c]pyridin-2-yl)-6-fluoro-2-methyl-indazole-7-carboxamide] | < 100 nM | > 10000 nM | – | –
